These results are taken from ChEMBL document CHEMBL1143457, “Benzyl ether structure-activity relationships in a series of ketopiperazine-based renin inhibitors” (Bioorg Med Chem Lett, 2005).

One may read the IC50 as the concentration needed to halve the response being measured. The term kinetic solubility denotes solubility judged after dilution from a stock solution rather than from solid. A word on the logD: it is lipophilicity at a set pH, counting ionised and neutral species. Higher therefore signals higher lipophilicity. As usually defined, the inhibition is how much of the control response was suppressed. Low readings indicate a weak effect, high ones a strong effect.

Molecules are shown by their SMILES. Converted amounts (≈) assume the structure as drawn. Where only a bound is given, the exact number is not on record here.

Data set [1] deals with T1, Renin (Homo sapiens, UniProt P00797).
T1 sequence (P00797 whole entry): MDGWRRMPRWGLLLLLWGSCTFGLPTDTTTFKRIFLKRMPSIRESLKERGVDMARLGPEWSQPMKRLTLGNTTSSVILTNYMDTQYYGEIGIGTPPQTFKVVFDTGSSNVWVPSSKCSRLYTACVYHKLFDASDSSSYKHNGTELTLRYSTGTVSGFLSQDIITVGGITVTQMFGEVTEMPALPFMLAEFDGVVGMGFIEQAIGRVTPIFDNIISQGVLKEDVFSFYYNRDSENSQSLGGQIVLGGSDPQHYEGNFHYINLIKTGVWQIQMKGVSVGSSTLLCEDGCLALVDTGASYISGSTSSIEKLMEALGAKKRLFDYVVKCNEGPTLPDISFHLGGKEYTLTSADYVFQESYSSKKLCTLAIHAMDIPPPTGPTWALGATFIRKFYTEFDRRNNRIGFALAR
Description: Inhibitory activity against renin in fluorescent tGFP assay.

A short description of data set [2]: Apparent solubility was measured at PH 6.5 by nepholometric method. In kind it is ADME. Particulars: buffer.
Data set [3] can be described thus: Distribution coefficient at PH 7.4 was determined. In kind it is physicochemical. The conditions noted are these: octanol/water.
For data set [4], the target named is CYP3A4 (Homo sapiens, UniProt P08684). Description: Inhibition of CYP3A4 at 3 uM was measured using fluorogenic substrate 7-Benzyloxy-4-(trifluoromethyl)-coumarin. In kind it is ADME. Particulars: probe 7-Benzyloxy-4-(trifluoromethyl)-coumarin.
CYP3A4, sequence (P08684 whole entry): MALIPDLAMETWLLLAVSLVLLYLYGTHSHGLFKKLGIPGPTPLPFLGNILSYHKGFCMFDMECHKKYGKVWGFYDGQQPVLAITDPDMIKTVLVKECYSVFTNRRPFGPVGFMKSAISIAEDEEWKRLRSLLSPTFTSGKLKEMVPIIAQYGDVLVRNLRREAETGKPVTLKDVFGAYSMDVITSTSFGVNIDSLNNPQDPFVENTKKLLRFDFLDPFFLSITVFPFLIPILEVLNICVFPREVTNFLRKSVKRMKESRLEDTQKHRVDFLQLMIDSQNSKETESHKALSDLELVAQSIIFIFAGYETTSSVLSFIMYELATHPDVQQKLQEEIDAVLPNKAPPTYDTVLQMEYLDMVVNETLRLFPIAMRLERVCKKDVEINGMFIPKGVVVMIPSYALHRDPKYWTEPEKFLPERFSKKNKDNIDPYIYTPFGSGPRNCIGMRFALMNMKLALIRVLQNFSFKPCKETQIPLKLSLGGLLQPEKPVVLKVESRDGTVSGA

The compound `COc1ccccc1COCCCOc1ccc(N2C(=O)CNC[C@@H]2COCc2cc(F)cc(F)c2)cc1` came in with an IC50 in data set [1] of 1600 nM.

For `COc1ccccc1COCCCOc1ccc(N2C(=O)CNC[C@@H]2COCc2cc(Cl)cc(Cl)c2)cc1`, in data set [1], the IC50 came to 180 nM. This IC50 is about 8.9-fold lower than that of the compound before. In turn, `COc1ccccc1COCCCOc1ccc(N2C(=O)CNC[C@@H]2COCc2ccccc2C(F)(F)F)cc1` came in with an IC50 in data set [1] of 270 nM. With `COc1ccccc1COCCCOc1ccc(N2C(=O)CNC[C@@H]2COCc2ccc(F)c(C(F)(F)F)c2)cc1`, the half-maximal inhibitory concentration (IC50) in data set [1] stood at 140 nM. Also, the kinetic solubility in data set [2] turned out to be 7 µg/mL (≈ 12.1 µM). In data set [3], this compound had a logD of 3.7. At 3 µM the inhibition in data set [4] was 87%. In turn, `COc1ccccc1COCCCOc1ccc(N2C(=O)CNC[C@@H]2COCc2ccc(C(F)(F)F)cc2)cc1` came in with a half-inhibitory concentration (IC50) in data set [1] of 6800 nM. In the case of `COc1ccccc1COCCCOc1ccc(N2C(=O)CNC[C@@H]2COCc2ccc(C)c(Cl)c2)cc1`, inhibition in data set [1] was half-maximal at 260 nM (IC50). The same measure, in the same setting: as for `COc1ccccc1COCCCOc1ccc(N2C(=O)CNC[C@@H]2COCc2ccc(F)cc2Cl)cc1`, the figure is 410 nM; as for `COc1ccccc1COCCCOc1ccc(N2C(=O)CNC[C@@H]2COCc2ccc(F)c(C)c2)cc1`, 270 nM; as for `COc1ccccc1COCCCOc1ccc(N2C(=O)CNC[C@@H]2COCc2cccc(Cl)c2)cc1`, 330 nM.

As for `COc1ccccc1COCCCOc1ccc(N2C(=O)CNC[C@@H]2COCc2cccc(C#N)c2)cc1`, in data set [1], the IC50 came out at 1200 nM. Regarding `COc1ccccc1COCCCOc1ccc(N2C(=O)CNC[C@@H]2COCc2ccccn2)cc1`, in data set [1], the IC50 was greater than 1000 nM.

In data set [1], `COc1ccccc1COCCCOc1ccc(N2C(=O)CNC[C@H]2COCc2cccnc2)cc1` had an IC50 greater than 10000 nM. Still for that read-out and setting: the same measure for `COc1ccccc1COCCCOc1ccc(N2C(=O)CNC[C@H]2COCc2ccc(Cl)c(C(F)(F)F)c2)cc1`: 594 nM. Still for that read-out and setting: the same measure for `COc1ccccc1COCCCOc1ccc(N2C(=O)CNC[C@@H]2COCc2cccc(C(F)(F)F)c2)cc1`: 230 nM. Still for that read-out and setting: the same measure for `COc1ccccc1COCCCOc1ccc(N2C(=O)CNC[C@@H]2COCc2ccc(Cl)cc2)cc1`: 300 nM. For `COc1ccccc1COCCCOc1ccc(N2C(=O)CNC[C@@H]2COCc2ccc(F)c(F)c2)cc1`, in data set [1], the IC50 amounted to 250 nM. This IC50 and that of the compound before are within 1.5-fold of each other. On the same count and under the same terms, as for `COc1ccccc1COCCCOc1ccc(N2C(=O)CNC[C@@H]2COCc2cccc(OC(F)(F)F)c2)cc1`, the figure is 410 nM. The same measure, in the same setting: the same measure for `COc1cccc(COC[C@H]2CNCC(=O)N2c2ccc(OCCCOCc3ccccc3OC)cc2)c1`: 600 nM. On to `COc1ccccc1COCCCOc1ccc(N2C(=O)CNC[C@@H]2COCc2ccc(Cl)c(C(F)(F)F)c2)cc1`, for which, in data set [1], the midpoint of inhibition, the IC50, lay at 120 nM. For the same compound, the solubility (kinetic) in data set [2] was 3 µg/mL (≈ 5.06 µM). Also, in data set [3], the logD came out at 3.7. Further, in data set [4], the inhibition at 3 µM amounted to 97%. For `COc1ccccc1COCCCOc1ccc(N2C(=O)CNC[C@@H]2COCc2ccccc2OC)cc1`, in data set [1], 900 nM corresponded to half-maximal inhibition (IC50). In the case of `COc1ccccc1COCCCOc1ccc(N2C(=O)CNC[C@@H]2COCc2ccccc2F)cc1`, the IC50 in data set [1] turned out to be 230 nM. Same read-out and setting: as for `COc1ccccc1COCCCOc1ccc(N2C(=O)CNC[C@@H]2COCc2ccncc2)cc1`, the figure is greater than 1000 nM; as for `COc1ccccc1COCCCOc1ccc(N2C(=O)CNC[C@@H]2COCc2cccc(C(F)(F)F)c2F)cc1`, 270 nM.

`COc1ccccc1COCCCOc1ccc(N2C(=O)CNC[C@@H]2COc2ccc3c(c2)N(CCNC(C)=O)CCC3)cc1`: half-maximal inhibition in data set [1] (IC50) required 0.4 nM. Turning to `COc1ccccc1COCCCOc1ccc(N2C(=O)CNC[C@@H]2COCc2cccnc2)cc1`, 120 nM corresponded to half-maximal inhibition in data set [1] (IC50). Moreover, the kinetic solubility in data set [2] amounted to 100 µg/mL (≈ 203 µM). This compound displayed a logD in data set [3] of 2.9. In data set [4], this compound displayed an inhibition at 3 µM of 44%.
